Here are results for seven molecules from ChEMBL document CHEMBL5465560, “Selectivity Literature for EUbOPEN Chemogenomic Library” (2024).

Assay [1] deals with T1, MAP/microtubule affinity-regulating kinase 4 (Homo sapiens) (UniProt Q96L34).
T1 sequence (whole entry): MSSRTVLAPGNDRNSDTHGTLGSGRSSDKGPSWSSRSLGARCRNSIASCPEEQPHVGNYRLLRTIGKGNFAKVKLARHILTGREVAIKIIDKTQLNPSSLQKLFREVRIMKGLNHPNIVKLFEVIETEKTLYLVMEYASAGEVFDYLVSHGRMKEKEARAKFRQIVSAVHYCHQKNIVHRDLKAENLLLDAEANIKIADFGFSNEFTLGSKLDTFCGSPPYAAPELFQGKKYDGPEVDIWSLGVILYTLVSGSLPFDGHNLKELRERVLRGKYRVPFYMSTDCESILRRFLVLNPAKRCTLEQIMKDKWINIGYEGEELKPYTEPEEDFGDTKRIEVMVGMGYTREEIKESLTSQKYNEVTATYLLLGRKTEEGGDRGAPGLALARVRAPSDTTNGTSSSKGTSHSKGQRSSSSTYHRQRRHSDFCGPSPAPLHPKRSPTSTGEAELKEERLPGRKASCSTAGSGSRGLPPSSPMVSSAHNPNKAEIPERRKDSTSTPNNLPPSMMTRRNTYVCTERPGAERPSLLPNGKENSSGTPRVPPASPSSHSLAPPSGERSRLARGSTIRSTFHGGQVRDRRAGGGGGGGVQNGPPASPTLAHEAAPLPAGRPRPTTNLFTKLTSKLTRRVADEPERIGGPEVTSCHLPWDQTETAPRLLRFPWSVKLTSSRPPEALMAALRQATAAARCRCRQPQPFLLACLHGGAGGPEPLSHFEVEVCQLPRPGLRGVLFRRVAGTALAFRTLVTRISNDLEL
As to the kind of experiment: Selectivity interaction (KinomeScan (DiscoverX)) EUB0001619a MARK4. As to conditions: at 1 µM.

Assay [2] addresses Serine/threonine-protein kinase 24 (Homo sapiens) (UniProt Q9Y6E0). Kind of assay: Selectivity interaction (ActivX KiNativ screen (ex vivo kinase selectivity in human PBMCs)) EUB0001619a STK24. The format is cell-based. As to conditions: PBMC, at 1 µM.
In assay [3] the target is T2, Aurora kinase A (Homo sapiens) (UniProt O14965).
T2 sequence (whole entry): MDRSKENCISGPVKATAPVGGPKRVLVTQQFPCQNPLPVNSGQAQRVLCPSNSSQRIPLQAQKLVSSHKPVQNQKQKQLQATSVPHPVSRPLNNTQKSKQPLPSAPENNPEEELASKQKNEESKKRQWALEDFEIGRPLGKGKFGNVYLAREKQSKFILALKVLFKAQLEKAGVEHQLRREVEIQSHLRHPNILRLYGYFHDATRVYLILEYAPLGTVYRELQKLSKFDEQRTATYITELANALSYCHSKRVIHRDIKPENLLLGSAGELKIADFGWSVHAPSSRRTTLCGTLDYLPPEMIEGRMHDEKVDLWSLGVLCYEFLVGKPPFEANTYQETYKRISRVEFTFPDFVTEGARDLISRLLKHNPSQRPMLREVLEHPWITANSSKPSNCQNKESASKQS
As to conditions: at 10 µM.

Assay [4] addresses Fibroblast growth factor receptor 1 (Homo sapiens, UniProt P11362). The settings on record: at 10 µM.
Assay [5] has as its target T3, Serine/threonine-protein kinase Nek1 (Homo sapiens) (UniProt Q96PY6).
T3 sequence (whole entry): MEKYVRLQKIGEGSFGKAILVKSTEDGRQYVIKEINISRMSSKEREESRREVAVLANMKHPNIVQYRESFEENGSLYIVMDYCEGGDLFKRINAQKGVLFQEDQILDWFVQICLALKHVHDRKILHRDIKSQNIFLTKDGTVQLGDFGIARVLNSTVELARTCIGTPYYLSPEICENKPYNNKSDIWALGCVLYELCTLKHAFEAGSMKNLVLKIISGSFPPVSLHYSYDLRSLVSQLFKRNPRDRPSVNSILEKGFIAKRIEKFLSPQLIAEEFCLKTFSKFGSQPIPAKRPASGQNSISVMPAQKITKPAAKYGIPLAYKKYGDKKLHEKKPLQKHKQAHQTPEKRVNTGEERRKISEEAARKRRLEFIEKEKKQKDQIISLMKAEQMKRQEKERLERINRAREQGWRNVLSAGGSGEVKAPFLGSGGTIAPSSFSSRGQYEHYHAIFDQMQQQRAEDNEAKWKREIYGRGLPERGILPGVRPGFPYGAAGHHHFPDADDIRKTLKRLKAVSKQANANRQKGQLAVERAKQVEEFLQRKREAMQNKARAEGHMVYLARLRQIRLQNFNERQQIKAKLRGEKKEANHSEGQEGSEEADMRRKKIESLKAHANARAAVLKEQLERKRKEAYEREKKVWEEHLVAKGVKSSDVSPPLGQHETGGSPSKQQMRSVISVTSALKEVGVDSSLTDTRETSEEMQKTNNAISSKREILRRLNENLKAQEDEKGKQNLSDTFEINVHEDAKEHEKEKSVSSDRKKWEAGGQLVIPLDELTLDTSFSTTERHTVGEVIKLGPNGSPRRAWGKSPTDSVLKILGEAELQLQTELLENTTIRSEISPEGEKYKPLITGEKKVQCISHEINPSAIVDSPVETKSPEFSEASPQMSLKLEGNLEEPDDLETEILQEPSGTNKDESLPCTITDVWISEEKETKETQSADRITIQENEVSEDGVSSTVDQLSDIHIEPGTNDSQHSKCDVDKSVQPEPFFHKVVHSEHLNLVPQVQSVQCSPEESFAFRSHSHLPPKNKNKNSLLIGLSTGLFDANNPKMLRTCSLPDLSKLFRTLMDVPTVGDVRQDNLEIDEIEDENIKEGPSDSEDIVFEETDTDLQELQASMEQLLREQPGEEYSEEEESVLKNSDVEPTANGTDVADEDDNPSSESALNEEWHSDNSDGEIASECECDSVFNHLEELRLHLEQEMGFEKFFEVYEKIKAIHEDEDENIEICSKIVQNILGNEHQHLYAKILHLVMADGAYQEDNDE
As to the kind of experiment: Selectivity interaction (KinomeScan (DiscoverX)) EUB0000666a NEK1. The settings on record: at 10 µM.

In assay [6] the target is Insulin-like growth factor 1 receptor (Homo sapiens, UniProt P08069). Kind of assay: Selectivity interaction (KinomeScan (DiscoverX)) EUB0000607a IGF1R. As to conditions: at 10 µM.
Assay [7] has as its target Tyrosine-protein kinase Yes (Homo sapiens) (UniProt P07947). Kind of assay: Selectivity interaction (SelectScreen profiling (Invitrogen)) EUB0000607a YES1. The settings on record: at 2 µM.
Assay [8] deals with Serine/threonine-protein kinase B-raf (Homo sapiens), P15056 [V600E]. Kind of assay: Selectivity interaction (KinomeScan (DiscoverX)) EUB0000607a BRAF. The settings on record: at 10 µM.
The target of assay [9] is Ephrin type-A receptor 4 (Homo sapiens, UniProt P54764). The settings on record: at 10 µM.
The target of assay [10] is Protein kinase C eta type (Homo sapiens) (UniProt P24723). As to the kind of experiment: Selectivity interaction (ProQinase) EUB0000171b PRKCH.
In assay [11] the target is Macrophage colony-stimulating factor 1 receptor (Homo sapiens) (UniProt P07333). Kind of assay: Selectivity interaction (KinomeScan (DiscoverX)) EUB0001079a CSF1R. The settings on record: at 1 µM.

Protein kinase C eta type (Homo sapiens), sequence (P24723 whole entry): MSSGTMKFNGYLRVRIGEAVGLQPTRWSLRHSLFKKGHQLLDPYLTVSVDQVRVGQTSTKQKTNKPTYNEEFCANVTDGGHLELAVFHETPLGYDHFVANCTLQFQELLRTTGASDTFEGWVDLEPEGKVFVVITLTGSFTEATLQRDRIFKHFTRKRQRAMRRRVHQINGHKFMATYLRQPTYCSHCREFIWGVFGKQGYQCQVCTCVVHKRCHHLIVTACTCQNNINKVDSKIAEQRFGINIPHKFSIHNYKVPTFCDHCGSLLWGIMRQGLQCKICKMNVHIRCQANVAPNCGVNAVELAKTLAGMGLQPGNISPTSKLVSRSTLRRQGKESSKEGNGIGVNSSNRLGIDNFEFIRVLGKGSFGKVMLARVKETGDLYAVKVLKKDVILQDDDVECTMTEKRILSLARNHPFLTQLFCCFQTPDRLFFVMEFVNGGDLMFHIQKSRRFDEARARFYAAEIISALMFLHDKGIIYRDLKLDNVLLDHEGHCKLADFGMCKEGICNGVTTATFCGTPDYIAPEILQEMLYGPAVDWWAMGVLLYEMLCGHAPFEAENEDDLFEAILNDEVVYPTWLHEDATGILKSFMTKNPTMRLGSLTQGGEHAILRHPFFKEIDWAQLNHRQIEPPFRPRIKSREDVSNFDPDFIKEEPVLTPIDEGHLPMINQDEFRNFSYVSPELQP
Fibroblast growth factor receptor 1, sequence (P11362 22-822 limits assumed): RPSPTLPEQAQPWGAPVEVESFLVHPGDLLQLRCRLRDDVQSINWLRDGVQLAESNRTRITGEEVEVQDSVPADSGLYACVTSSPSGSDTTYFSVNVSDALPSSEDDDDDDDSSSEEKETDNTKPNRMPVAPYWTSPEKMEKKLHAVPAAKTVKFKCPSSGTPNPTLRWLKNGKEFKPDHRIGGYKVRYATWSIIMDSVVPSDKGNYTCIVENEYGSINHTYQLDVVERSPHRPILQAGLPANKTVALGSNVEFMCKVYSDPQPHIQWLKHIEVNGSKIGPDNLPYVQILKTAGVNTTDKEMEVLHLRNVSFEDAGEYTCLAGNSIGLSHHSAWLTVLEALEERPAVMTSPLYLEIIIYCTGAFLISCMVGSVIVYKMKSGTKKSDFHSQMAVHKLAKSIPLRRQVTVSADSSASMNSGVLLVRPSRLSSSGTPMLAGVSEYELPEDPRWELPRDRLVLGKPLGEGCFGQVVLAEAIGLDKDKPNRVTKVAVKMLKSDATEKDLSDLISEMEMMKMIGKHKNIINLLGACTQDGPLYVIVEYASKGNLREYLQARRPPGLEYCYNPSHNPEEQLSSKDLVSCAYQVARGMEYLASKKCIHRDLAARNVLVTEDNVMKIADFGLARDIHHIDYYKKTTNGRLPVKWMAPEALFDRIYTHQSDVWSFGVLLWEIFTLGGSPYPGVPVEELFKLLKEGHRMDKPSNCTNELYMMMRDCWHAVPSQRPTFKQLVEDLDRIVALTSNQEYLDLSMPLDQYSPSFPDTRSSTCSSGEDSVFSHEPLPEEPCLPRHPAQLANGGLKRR
Serine/threonine-protein kinase 24 (Homo sapiens), sequence (Q9Y6E0 whole entry, looked up): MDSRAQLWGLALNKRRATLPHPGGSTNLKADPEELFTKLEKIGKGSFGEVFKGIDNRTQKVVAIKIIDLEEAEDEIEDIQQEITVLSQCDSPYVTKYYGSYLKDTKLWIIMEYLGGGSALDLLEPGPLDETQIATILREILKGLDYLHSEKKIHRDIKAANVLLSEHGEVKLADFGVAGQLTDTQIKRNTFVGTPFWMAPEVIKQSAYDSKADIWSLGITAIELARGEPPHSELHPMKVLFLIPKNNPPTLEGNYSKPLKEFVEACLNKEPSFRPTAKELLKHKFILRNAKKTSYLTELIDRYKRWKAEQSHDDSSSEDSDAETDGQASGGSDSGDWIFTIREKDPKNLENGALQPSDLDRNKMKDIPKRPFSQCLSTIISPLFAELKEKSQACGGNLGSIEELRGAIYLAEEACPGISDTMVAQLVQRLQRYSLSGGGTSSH
Tyrosine-protein kinase Yes (Homo sapiens), sequence (P07947 2-543 limits assumed): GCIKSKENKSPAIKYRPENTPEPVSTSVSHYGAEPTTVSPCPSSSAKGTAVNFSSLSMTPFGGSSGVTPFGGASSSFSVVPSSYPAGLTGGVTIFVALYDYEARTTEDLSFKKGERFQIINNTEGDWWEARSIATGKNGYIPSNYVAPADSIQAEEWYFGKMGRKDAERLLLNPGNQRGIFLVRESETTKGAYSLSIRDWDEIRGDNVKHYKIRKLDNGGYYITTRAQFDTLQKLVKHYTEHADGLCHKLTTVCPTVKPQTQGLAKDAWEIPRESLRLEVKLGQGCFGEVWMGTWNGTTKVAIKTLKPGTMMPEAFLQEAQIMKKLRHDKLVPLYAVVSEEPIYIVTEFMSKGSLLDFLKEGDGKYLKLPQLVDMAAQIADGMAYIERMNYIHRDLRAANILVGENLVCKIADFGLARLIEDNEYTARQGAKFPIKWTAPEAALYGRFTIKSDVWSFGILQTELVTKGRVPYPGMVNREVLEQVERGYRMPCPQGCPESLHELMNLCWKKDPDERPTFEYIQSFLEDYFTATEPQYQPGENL
Ephrin type-A receptor 4, sequence (P54764 whole entry): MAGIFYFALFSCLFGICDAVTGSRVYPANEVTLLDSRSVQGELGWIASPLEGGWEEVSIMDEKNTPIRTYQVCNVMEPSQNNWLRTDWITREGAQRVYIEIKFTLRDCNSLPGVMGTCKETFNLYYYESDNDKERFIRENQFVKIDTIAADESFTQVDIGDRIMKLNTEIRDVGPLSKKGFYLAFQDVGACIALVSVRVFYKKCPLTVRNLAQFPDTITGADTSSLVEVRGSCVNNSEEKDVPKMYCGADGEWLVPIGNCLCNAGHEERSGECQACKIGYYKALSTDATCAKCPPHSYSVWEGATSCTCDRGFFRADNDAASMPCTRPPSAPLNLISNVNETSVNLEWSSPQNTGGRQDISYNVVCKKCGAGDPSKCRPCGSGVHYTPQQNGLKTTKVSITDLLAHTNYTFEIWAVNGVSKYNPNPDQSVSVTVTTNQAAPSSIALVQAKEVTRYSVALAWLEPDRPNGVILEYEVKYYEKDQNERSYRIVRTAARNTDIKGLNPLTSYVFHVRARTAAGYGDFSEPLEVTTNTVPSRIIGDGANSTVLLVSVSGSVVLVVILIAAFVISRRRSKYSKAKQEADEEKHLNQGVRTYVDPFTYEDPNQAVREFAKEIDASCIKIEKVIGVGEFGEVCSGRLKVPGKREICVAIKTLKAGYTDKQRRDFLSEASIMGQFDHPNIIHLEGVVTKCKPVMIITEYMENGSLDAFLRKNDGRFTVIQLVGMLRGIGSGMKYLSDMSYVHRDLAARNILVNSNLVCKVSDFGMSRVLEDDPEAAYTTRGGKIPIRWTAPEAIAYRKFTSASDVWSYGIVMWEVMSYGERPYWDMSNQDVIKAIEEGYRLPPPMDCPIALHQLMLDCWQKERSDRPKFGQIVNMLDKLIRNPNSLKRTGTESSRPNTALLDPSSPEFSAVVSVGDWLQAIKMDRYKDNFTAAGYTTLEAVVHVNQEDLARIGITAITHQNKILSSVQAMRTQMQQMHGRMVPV
Insulin-like growth factor 1 receptor, sequence (P08069 31-736 limits assumed): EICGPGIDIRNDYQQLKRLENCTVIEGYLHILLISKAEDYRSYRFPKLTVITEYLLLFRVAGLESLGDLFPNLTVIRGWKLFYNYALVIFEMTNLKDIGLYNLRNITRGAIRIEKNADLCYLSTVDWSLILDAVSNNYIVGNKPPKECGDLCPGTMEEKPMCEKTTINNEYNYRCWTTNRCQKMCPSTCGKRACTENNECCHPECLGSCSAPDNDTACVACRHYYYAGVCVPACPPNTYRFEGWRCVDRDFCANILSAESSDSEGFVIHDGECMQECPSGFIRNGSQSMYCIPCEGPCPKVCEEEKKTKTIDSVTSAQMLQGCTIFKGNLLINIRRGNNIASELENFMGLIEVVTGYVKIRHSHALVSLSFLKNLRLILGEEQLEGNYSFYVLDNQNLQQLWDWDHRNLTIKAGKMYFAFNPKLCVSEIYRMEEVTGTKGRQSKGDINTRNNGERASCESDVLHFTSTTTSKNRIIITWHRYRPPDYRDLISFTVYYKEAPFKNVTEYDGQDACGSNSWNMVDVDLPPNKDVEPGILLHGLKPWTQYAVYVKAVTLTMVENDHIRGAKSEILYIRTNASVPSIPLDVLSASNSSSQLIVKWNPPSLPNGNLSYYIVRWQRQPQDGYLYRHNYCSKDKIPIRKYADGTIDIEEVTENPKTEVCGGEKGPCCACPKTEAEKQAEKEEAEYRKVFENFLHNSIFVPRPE
Insulin-like growth factor 1 receptor, sequence (P08069 741-1367 limits assumed): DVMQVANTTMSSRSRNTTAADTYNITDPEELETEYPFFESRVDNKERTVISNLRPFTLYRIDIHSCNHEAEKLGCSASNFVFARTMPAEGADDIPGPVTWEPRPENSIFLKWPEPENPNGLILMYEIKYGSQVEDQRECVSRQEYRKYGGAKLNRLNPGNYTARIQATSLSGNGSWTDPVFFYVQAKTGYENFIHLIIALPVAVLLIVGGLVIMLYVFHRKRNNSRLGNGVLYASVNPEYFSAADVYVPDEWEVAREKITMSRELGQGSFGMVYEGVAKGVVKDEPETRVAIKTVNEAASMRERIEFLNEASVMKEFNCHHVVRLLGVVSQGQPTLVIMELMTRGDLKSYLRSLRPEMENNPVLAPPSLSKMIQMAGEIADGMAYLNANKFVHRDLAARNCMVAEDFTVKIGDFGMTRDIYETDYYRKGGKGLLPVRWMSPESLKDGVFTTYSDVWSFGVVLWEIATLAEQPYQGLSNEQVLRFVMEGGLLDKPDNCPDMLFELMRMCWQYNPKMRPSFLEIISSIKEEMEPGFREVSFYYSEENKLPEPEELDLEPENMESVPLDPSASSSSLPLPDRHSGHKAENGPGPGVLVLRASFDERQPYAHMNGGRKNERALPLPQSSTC

In assay [1], `N#Cc1cccc(-c2c[nH]c3ncnc(N4CCOCC4)c23)c1` came in with a % of control of 82%. The % of inhibition in assay [2] came to 39%.
Take `CCN(CC)CCCCNc1ncc2cc(-c3cc(OC)cc(OC)c3)c(NC(=O)NC(C)(C)C)nc2n1`: the % of control in [3] was determined as 100%; in assay [4] it was 0.4%.
Take `O=C(NOC[C@H](O)CO)c1ccc(F)c(F)c1Nc1ccc(I)cc1F`: the % of control in assay [5] came out at 98%.
In the case of `CNC(=O)Nc1ccc(-c2nc(N3CC4CCC(C3)O4)c3cnn(C4CCC5(CC4)OCCO5)c3n2)cc1`, the % of control in assay [6] came out at 93%; in [8], 100%. This molecule yielded a % of inhibition in assay [7] of 2%.
As for `Cc1cc([C@@H](C)Nc2ccccc2C(=O)O)c2nc(N3CCOCC3)cc(=O)n2c1` [AZD-6482], in [9], the % of control was determined as 93%.
`C=CC(=O)Nc1cccc(C(=O)Nc2ccc(Nc3cc(-c4[nH]c(SC)nc4C)ccn3)cc2)c1`: the % of control amounted to 91% in assay [10] (at 1 µM) and 78% in assay [10] (at 5 µM).
In assay [11], `Nc1cnc(N2CCc3cc(S(=O)(=O)Nc4c(F)cc(Cl)cc4F)cc(N4CCCC4=O)c32)nc1` [TP-020n] gave a % of control of 100%.
